Assay results as given in patent US9493501B2 (MEMORIAL SLOAN-KETTERING CANCER CENTER, priority 2011, dated 2016).

Target: T1, SETD2 (1347-1711) (Homo sapiens, UniProt Q9BYW2)
T1 sequence (Q9BYW2 1347-1711): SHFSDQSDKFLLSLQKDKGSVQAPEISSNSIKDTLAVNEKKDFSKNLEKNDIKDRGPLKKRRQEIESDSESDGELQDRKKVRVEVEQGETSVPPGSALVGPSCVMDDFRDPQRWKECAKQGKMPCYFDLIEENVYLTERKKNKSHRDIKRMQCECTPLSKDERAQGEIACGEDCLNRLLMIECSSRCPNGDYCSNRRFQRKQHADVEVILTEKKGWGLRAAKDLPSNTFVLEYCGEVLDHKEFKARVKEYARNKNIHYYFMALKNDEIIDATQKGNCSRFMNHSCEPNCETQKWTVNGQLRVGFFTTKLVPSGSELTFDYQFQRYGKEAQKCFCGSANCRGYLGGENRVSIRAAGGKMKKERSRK
Test: Filter-paper methylation assay, SETD2
Assay type: biochemical

Question: How did the IC50 turn out when `Nc1ncnc2c1ncn2C1OC(CC(CCC(N)C(=O)O)NCc2ccccc2)C(O)C1O` (stereo not shown) [Compound 110] was run?
Answer: 500 nM
